Where a SMILES comes first, the peptide text is derived from it. [ ]: non-standard residue; d: D form. The star is where a group is joined. NHCH2CH2OH = OCCN*; For = O=C*
Assays:
[1] = cell viability/%
How it was run: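 Peptide stocks diluted 250× in growth medium; P388 cells 1 × 10^4 cells/mL final; 37 °C, 5% CO2, 92 h. WST-1 + 1-methoxy PMS, 4 h, A415. Output: % viability.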

[2] = test system: Streptococcus pyogenes SSI-9; test: Antibacterial activity assay of bead-derived peptides (three concentrations); type: cell-based; parameters: key: +++: inhibition by the 640-fold diluted peptide solution; ++: inhibition by the 160-fold diluted solution; +: inhibition by the 40-fold diluted solution; -: no inhibition; conditions: S. pyogenes, bead-derived peptide solution, three concentrations
How it was run: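 Growth inhibition scored visually as precipitated bacteria after 37 °C, 18 h incubation. Streptococcus pyogenes SSI-9 inoculum of 2 × 10^5 CFU in Ca2+/Mg2+-adjusted Mueller Hinton broth plus 5% laked horse blood; peptides tested at three levels: stock, 4-fold and 16-fold DMSO dilutions.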

[3] = H+/Na+ transport assay of bead-derived peptides (one-point); type: biochemical; parameters: key: relative activity; mean of two control wells = 1.00; conditions: bead-derived peptide solution, EYPC/EYPG LUVs;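 further: relative to parent gramicidin A activity set to 1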
How it was run: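 H+/Na+ transport is monitored through pyranine fluorescence in freshly extruded LUVs after a 30-min room-temperature vortex with each library peptide at a single concentration. Signals are normalized to detergent (Triton X-100) and untreated controls.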

SMILES | viability [1] [%] | antibacterial activity [2] | H+/Na+ transport activity normalized against the value of 1 (1.00) [3]
CNC(=O)C[C@@H](NC(=O)[C@@H](NC(=O)[C@H](NC(=O)[C@H](C)NC(=O)[C@H](NC(=O)[C@H](C)NC(=O)CNC(=O)[C@@H](NC=O)C(C)C)C(C)C)C(C)C)C(C)C)C(=O)N[C@@H](Cc1c[nH]c2ccccc12)C(=O)N[C@@H](C(=O)N[C@@H](Cc1c[nH]c2ccccc12)C(=O)N[C@@H](C(=O)N[C@@H](Cc1c[nH]c2ccccc12)C(=O)N[C@H](CC(C)C)C(=O)N[C@@H](Cc1c[nH]c2ccccc12)C(=O)NCCO)C(C)C)C(C)C [compound 11413] (For-VGA[dV]A[dV]V[dD](NHMe)W[dV]W[dV]W[dL]W-NHCH2CH2OH) | 45.4 | - | 1.21
CNC(=O)C[C@@H](NC(=O)[C@H](C)NC(=O)[C@H](NC(=O)[C@H](C)NC(=O)CNC(=O)[C@@H](NC=O)C(C)C)C(C)C)C(=O)N[C@H](C(=O)N[C@@H](C(=O)N[C@@H](Cc1c[nH]c2ccccc12)C(=O)N[C@H](CC(C)C)C(=O)N[C@@H](Cc1c[nH]c2ccccc12)C(=O)N[C@@H](C(=O)N[C@@H](Cc1c[nH]c2ccccc12)C(=O)N[C@H](CC(C)C)C(=O)N[C@@H](Cc1c[nH]c2ccccc12)C(=O)NCCO)C(C)C)C(C)C)C(C)C [compound 12938] (For-VGA[dV]A[dD](NHMe)V[dV]W[dL]W[dV]W[dL]W-NHCH2CH2OH) | 100 | - | 1.07
CNC(=O)C[C@@H](NC(=O)[C@H](Cc1c[nH]c2ccccc12)NC(=O)[C@H](NC(=O)[C@H](Cc1c[nH]c2ccccc12)NC(=O)[C@@H](CC(C)C)NC(=O)[C@H](Cc1c[nH]c2ccccc12)NC(=O)[C@H](NC(=O)[C@@H](NC(=O)[C@H](NC(=O)[C@H](C)NC(=O)[C@@H](CC(C)C)NC(=O)[C@H](C)NC(=O)CNC(=O)[C@@H](NC=O)C(C)C)C(C)C)C(C)C)C(C)C)C(C)C)C(=O)N[C@@H](Cc1c[nH]c2ccccc12)C(=O)NCCO [compound 3499] (For-VGA[dL]A[dV]V[dV]W[dL]W[dV]W[dD](NHMe)W-NHCH2CH2OH) | 100 | + | 1.01
CC(C)C[C@@H](NC(=O)[C@H](C)NC(=O)[C@H](NC(=O)[C@H](C)NC(=O)CNC(=O)[C@@H](NC=O)C(C)C)[C@H](C)O)C(=O)N[C@H](C(=O)N[C@H](CC(C)C)C(=O)N[C@@H](Cc1c[nH]c2ccccc12)C(=O)N[C@@H](C(=O)N[C@@H](Cc1c[nH]c2ccccc12)C(=O)N[C@H](CC(C)C)C(=O)N[C@@H](Cc1c[nH]c2ccccc12)C(=O)N[C@H](CC(C)C)C(=O)N[C@@H](Cc1c[nH]c2ccccc12)C(=O)NCCO)C(C)C)C(C)C [compound 4687] (For-VGA[dT]A[dL]V[dL]W[dV]W[dL]W[dL]W-NHCH2CH2OH) | 94.4 | - | 1.04
CNC(=O)C[C@@H](NC(=O)[C@H](C)NC(=O)[C@H](NC(=O)[C@H](C)NC(=O)CNC(=O)[C@@H](NC=O)C(C)C)C(C)C)C(=O)N[C@H](C(=O)N[C@H](CC(C)C)C(=O)N[C@@H](Cc1c[nH]c2ccccc12)C(=O)N[C@@H](C(=O)N[C@@H](Cc1c[nH]c2ccccc12)C(=O)N[C@@H](C(=O)N[C@@H](Cc1c[nH]c2ccccc12)C(=O)N[C@@H](C(=O)N[C@@H](Cc1c[nH]c2ccccc12)C(=O)NCCO)C(C)C)C(C)C)C(C)C)C(C)C [compound 13148] (For-VGA[dV]A[dD](NHMe)V[dL]W[dV]W[dV]W[dV]W-NHCH2CH2OH) | 93.6 | - | 1.03
CC(C)C[C@@H](NC(=O)[C@H](C)NC(=O)CNC(=O)[C@@H](NC=O)C(C)C)C(=O)N[C@@H](C)C(=O)N[C@H](CC(C)C)C(=O)N[C@H](C(=O)N[C@@H](C(=O)N[C@@H](Cc1c[nH]c2ccccc12)C(=O)N[C@H](CC(C)C)C(=O)N[C@@H](Cc1c[nH]c2ccccc12)C(=O)N[C@@H](C(=O)N[C@@H](Cc1c[nH]c2ccccc12)C(=O)N[C@H](CC(C)C)C(=O)N[C@@H](Cc1c[nH]c2ccccc12)C(=O)NCCO)[C@H](C)O)[C@H](C)O)C(C)C [compound 1176] (For-VGA[dL]A[dL]V[dT]W[dL]W[dT]W[dL]W-NHCH2CH2OH) | 100 | - | 1.01
CNC(=O)C[C@@H](NC(=O)[C@@H](NC(=O)[C@@H](CC(C)C)NC(=O)[C@H](C)NC(=O)[C@@H](CC(C)C)NC(=O)[C@H](C)NC(=O)CNC(=O)[C@@H](NC=O)C(C)C)C(C)C)C(=O)N[C@@H](Cc1c[nH]c2ccccc12)C(=O)N[C@H](CC(C)C)C(=O)N[C@@H](Cc1c[nH]c2ccccc12)C(=O)N[C@@H](C(=O)N[C@@H](Cc1c[nH]c2ccccc12)C(=O)N[C@@H](C(=O)N[C@@H](Cc1c[nH]c2ccccc12)C(=O)NCCO)C(C)C)C(C)C [compound 10379] (For-VGA[dL]A[dL]V[dD](NHMe)W[dL]W[dV]W[dV]W-NHCH2CH2OH) | 100 | - | 1.08
CC(C)[C@H](NC=O)C(=O)NCC(=O)N[C@@H](C)C(=O)N[C@@H](C(=O)N[C@@H](C)C(=O)N[C@@H](C(=O)N[C@H](C(=O)N[C@@H](C(=O)N[C@@H](Cc1c[nH]c2ccccc12)C(=O)N[C@@H](C(=O)N[C@@H](Cc1c[nH]c2ccccc12)C(=O)N[C@@H](C(=O)N[C@@H](Cc1c[nH]c2ccccc12)C(=O)N[C@@H](C(=O)N[C@@H](Cc1c[nH]c2ccccc12)C(=O)NCCO)C(C)C)C(C)C)C(C)C)C(C)C)C(C)C)C(C)C)C(C)C [compound 4223] (For-VGA[dV]A[dV]V[dV]W[dV]W[dV]W[dV]W-NHCH2CH2OH) | 95.6 | + | 1.09
CNC(=O)C[C@@H](NC(=O)[C@@H](NC(=O)[C@H](NC(=O)[C@H](C)NC(=O)[C@@H](CC(C)C)NC(=O)[C@H](C)NC(=O)CNC(=O)[C@@H](NC=O)C(C)C)C(C)C)C(C)C)C(=O)N[C@@H](Cc1c[nH]c2ccccc12)C(=O)N[C@H](CC(C)C)C(=O)N[C@@H](Cc1c[nH]c2ccccc12)C(=O)N[C@H](CC(C)C)C(=O)N[C@@H](Cc1c[nH]c2ccccc12)C(=O)N[C@@H](C(=O)N[C@@H](Cc1c[nH]c2ccccc12)C(=O)NCCO)C(C)C [compound 7204] (For-VGA[dL]A[dV]V[dD](NHMe)W[dL]W[dL]W[dV]W-NHCH2CH2OH) | 100 | - | 1.17
CC(C)C[C@@H](NC(=O)[C@H](C)NC(=O)CNC(=O)[C@@H](NC=O)C(C)C)C(=O)N[C@@H](C)C(=O)N[C@@H](C(=O)N[C@H](C(=O)N[C@@H](C(=O)N[C@@H](Cc1c[nH]c2ccccc12)C(=O)N[C@@H](C(=O)N[C@@H](Cc1c[nH]c2ccccc12)C(=O)N[C@@H](C(=O)N[C@@H](Cc1c[nH]c2ccccc12)C(=O)N[C@@H](C(=O)N[C@@H](Cc1c[nH]c2ccccc12)C(=O)NCCO)C(C)C)C(C)C)C(C)C)[C@H](C)O)C(C)C)C(C)C [compound 1520] (For-VGA[dL]A[dV]V[dT]W[dV]W[dV]W[dV]W-NHCH2CH2OH) | 100 | - | 1.04
CC(C)C[C@@H](NC(=O)[C@H](C)NC(=O)[C@H](NC(=O)[C@H](C)NC(=O)CNC(=O)[C@@H](NC=O)C(C)C)C(C)C)C(=O)N[C@H](C(=O)N[C@@H](C(=O)N[C@@H](Cc1c[nH]c2ccccc12)C(=O)N[C@H](CC(C)C)C(=O)N[C@@H](Cc1c[nH]c2ccccc12)C(=O)N[C@@H](C(=O)N[C@@H](Cc1c[nH]c2ccccc12)C(=O)N[C@@H](C(=O)N[C@@H](Cc1c[nH]c2ccccc12)C(=O)NCCO)[C@H](C)O)C(C)C)[C@H](C)O)C(C)C [compound 3328] (For-VGA[dV]A[dL]V[dT]W[dL]W[dV]W[dT]W-NHCH2CH2OH) | 100 | - | 1.08
CC(C)C[C@@H](NC(=O)[C@H](C)NC(=O)CNC(=O)[C@@H](NC=O)C(C)C)C(=O)N[C@@H](C)C(=O)N[C@H](CC(C)C)C(=O)N[C@H](C(=O)N[C@H](CC(C)C)C(=O)N[C@@H](Cc1c[nH]c2ccccc12)C(=O)N[C@H](CC(C)C)C(=O)N[C@@H](Cc1c[nH]c2ccccc12)C(=O)N[C@@H](C(=O)N[C@@H](Cc1c[nH]c2ccccc12)C(=O)N[C@H](CC(C)C)C(=O)N[C@@H](Cc1c[nH]c2ccccc12)C(=O)NCCO)[C@H](C)O)C(C)C [compound 1888] (For-VGA[dL]A[dL]V[dL]W[dL]W[dT]W[dL]W-NHCH2CH2OH) | 100 | - | 1.16
CNC(=O)C[C@@H](NC(=O)[C@H](Cc1c[nH]c2ccccc12)NC(=O)[C@@H](CC(C)C)NC(=O)[C@@H](NC(=O)[C@@H](CC(C)C)NC(=O)[C@H](C)NC(=O)[C@H](NC(=O)[C@H](C)NC(=O)CNC(=O)[C@@H](NC=O)C(C)C)[C@H](C)O)C(C)C)C(=O)N[C@@H](Cc1c[nH]c2ccccc12)C(=O)N[C@H](CC(C)C)C(=O)N[C@@H](Cc1c[nH]c2ccccc12)C(=O)N[C@H](CC(C)C)C(=O)N[C@@H](Cc1c[nH]c2ccccc12)C(=O)NCCO [compound 5284] (For-VGA[dT]A[dL]V[dL]W[dD](NHMe)W[dL]W[dL]W-NHCH2CH2OH) | 100 | - | 1.02

— paper PMC7531004, “Discovery of gramicidin A analogues with altered activities by multidimensional screening of a one-bead-one-compound library” (Nature Communications, 2020)
